Measured values taken from patent US20100286217A1, “STABLE, LOW VOC, LOW VISCOUS BIOCIDAL FORMULATIONS AND METHOD OF MAKING SUCH FORMULATIONS” (priority 2008, published 2010).

Assay: Dissolution of IPBC in MPEG-350/DMSO versus PEG-400/DMSO
Assay type: physicochemical
Conditions: 60% IPBC solution
Experimental: In a 100 ml beaker is added about 25 ml of solvent, and the weight is recorded to four significant digits. The beaker is heated to 40-60° C. (depending on the active being tested) in a water bath. The solute of interest is added stepwise (all aliquot weights are recorded to four significant digits) until saturation is achieved. Once the solid remains undissolved, back-titration with known weights of solvent are performed until the solution is clear.
This example compares the viscosity and VOC content of 55 and 60% IPBC formulations in MPEG-350/DMSO and PEG-400/DMSO. For the 55% IPBC solutions, 10% DMSO is used. For the 60% solutions, only 10% DMSO is required for complete dissolution of the IPBC when MPEG is used, however, 15% DMSO is required for complete dissolution of the IPBC when PEG 400 is used. Viscosity and VOC data are in Table 6.

CCCCNC(=O)OCC#CI [IPBC, 3-iodo-2-propynyl butyl carbamate]
DMSO required for complete dissolution of the IPBC (MPEG used): 10%
DMSO required for complete dissolution of the IPBC (PEG 400 used): 15%
